From patent publication US20200333324A1, “METHOD OF PREDICTING CLINICAL OUTCOME OF ANTICANCER AGENTS” (MITRA RXDX, INC., priority 2017, published 2020)

What was measured:
Format in all cases: cell-based, human
[1] = tested on: CRC tumor tissue; assay: Granzyme B and Perforin secretion assays, CRC tumor sections in tumor microenvironment platform; details: 48 hours
Description: FIGS. 10A and 10B show quantification of results for Granzyme B and Perforin secretion assays for CRC tumor tissue cultured in the tumor microenvironment platform treated with Ipilimumab, Nivolumab, Ipilimumab+Nivolumab, FOLFIRI, or IgG control for 24 or 48 hours.
In another experiment, CRC tumor sections from the same patient cultured for 24 or 48 hours in the tumor microenvironment platform with Ipilimumab, Nivolumab, Ipilimumab+Nivolumab, FOLFIRI, or IgG as control were assayed for Granzyme B and Perforin secretion. Results are shown in FIG. 10A for the tumor microenvironment platform with tumor tissue from a predicted responder and FIG. 10B for the tumor microenvironment platform with tumor tissue from a predicted non-responder. After treatment with Nivolumab for 48 hours, there was an increase in Granzyme B secretion in the tumor microenvironment platform with tissue from the predicted responder compared to treatment with Ipilimumab or the control IgG. By contrast, at 48 hours in the tumor microenvironment platform with tissue from the predicted non-responder there was no increase in Granzyme B or Perforin secretion for treatment with Nivolumab.

[2] = tested on: HNSCC tumor tissue; assay: H&E staining and IHC for Ki67 and Caspase 3 in tumor microenvironment platform; details: patient 2941
Description: The effects of Pembrolizumab and Nivolumab on proliferation in the tumor microenvironment platform were then evaluated. Tumor sections from the same patient cultured for 72 hours in the tumor microenvironment platform (performed in at least biological triplicate) were treated with Pembrolizumab, Nivolumab, or IgG as control. Tissue was subsequently formalin fixed and paraffin embedded, and processed for H&E staining and immuno histochemical staining (IHC) with Ki67 and Caspase 3 at day 3 in culture (T3). Baseline staining was determined at TO.
The effect of Pembrolizumab and Nivolumab on CD8^+ T cell tumor infiltration was then evaluated. Tumor sections from the same patient cultured for 72 hours in the tumor microenvironment platform were treated with Pembrolizumab, Nivolumab, or IgG as control and stained for H&E, Ki67, Caspase 3, and CD8 at day 3 in culture (T3). Baseline staining was determined at TO. […] CD8^+ T cell infiltration was evaluated in the tumor microenvironment platform with tumor tissue from the same patient, and comparisons for control vs Nivo, control vs Pembro, Nivo vs Pembro, and control vs Nivo vs Pembro for multiple patients are shown in FIG. 6 (each line represents results from the tumor microenvironment platform cultured with tumor tissue from a single individual).

[3] = tested on: PBNCs; assay: FACS of CD3+/CD45+ lymphocytes for PD-1, CEACAM, LAG3, TIM3, OX40, ILDR2, 4-1-BB, GITR, PBNCs
Description: (§1) To further probe the phenotypic modulation mediated by treatment with Nivolumab, tumor sections or PBNCs from the same patient cultured for 3 days (72 hours) in the tumor microenvironment platform were treated with Nivolumab or IgG control for one day, followed by flow cytometry gating for lymphocytes based on their forward and side scatter properties. Lymphocytes were further gated for expression of both CD3 and CD45, and this population of cells was analyzed by FACS for expression of PD-1, CEACAM, LAG3, TIM3, OX40, ILDR2, 4-1-BB, and GITR.

[4] = tested on: Tumor sections; assay: FACS of CD3+/CD45+ lymphocytes for PD-1, CEACAM, LAG3, TIM3, OX40, ILDR2, 4-1-BB, GITR, tumor sections
Description: as §1

[5] = platform containing tumor tissue, vs IgG control

With Nivolumab the “Granzyme B secretion” value ([1]; predicted non-responder) was “no increase”, the Perforin secretion ([1]; predicted non-responder) was “no increase” and the “Granzyme B secretion” value ([1]; predicted responder, compared to Ipilimumab or control IgG) was “increase”. For the same substance, the “proliferation (Ki67 IHC)” value ([2]; 72 hours, vs IgG control) was “diminished proliferation”, the “Caspase 3 activity (IHC)” value ([2]; T3, associated with increased CD8^+ T cell infiltration) was “increased Caspase 3 activity” and the “CEACAM PBMCs (% total cells)” value ([3]; CD3+/CD45+ lymphocytes, treated one day, control 0.12) was 2.74 % total cells. For the same substance, the “LAG3 PBMCs (% total cells)” value ([3]; CD3+/CD45+ lymphocytes, treated one day, control 0.14) was 0.031 % total cells, the “OX40 PBMCs (% total cells)” value ([3]; CD3+/CD45+ lymphocytes, treated one day, control 0.25) was 0 % total cells and the “4-1-BB PBMCs (% total cells)” value ([3]; CD3+/CD45+ lymphocytes, treated one day, control 0.27) was 0.38 % total cells. The “GITR PBMCs (% total cells)” value ([3]; CD3+/CD45+ lymphocytes, treated one day, control 0.30) was 0.50 % total cells, the “ILDR2 PBMCs (% total cells)” value ([3]; CD3+/CD45+ lymphocytes, treated one day, control 1.96) was 2.67 % total cells and the “PD-1 PBMCs (% total cells)” value ([3]; CD3+/CD45+ lymphocytes, treated one day, control 2.94) was 0.31 % total cells. For the same substance, the “TIM3 PBMCs (% total cells)” value ([3]; CD3+/CD45+ lymphocytes, treated one day, control 7.91) was 13.9 % total cells, the “ILDR2^+/CD3^+/CD45^+ and GITR^+/CD3^+/CD45^+ cell populations” value ([3]; platform containing only PBNCs, vs IgG control) was “No significant change” and the “OX40 Tumor (% total cells)” value ([4]; CD3+/CD45+ lymphocytes, treated one day, control 1.70) was 0 % total cells. For the same substance, the “CEACAM Tumor (% total cells)” value ([4]; CD3+/CD45+ lymphocytes, treated one day, control 2.04) was 3.69 % total cells, the “LAG3 Tumor (% total cells)” value ([4]; CD3+/CD45+ lymphocytes, treated one day, control 2.22) was 0.52 % total cells and the “GITR Tumor (% total cells)” value ([4]; CD3+/CD45+ lymphocytes, treated one day, control 2.60) was 13.0 % total cells. The “4-1-BB Tumor (% total cells)” value ([4]; CD3+/CD45+ lymphocytes, treated one day, control 4.69) was 7.56 % total cells, the “TIM3 Tumor (% total cells)” value ([4]; CD3+/CD45+ lymphocytes, treated one day, control 17.8) was 19.9 % total cells and the “PD-1 Tumor (% total cells)” value ([4]; CD3+/CD45+ lymphocytes, treated one day, control 19.4) was 20.5 % total cells. For the same substance, the “ILDR2 Tumor (% total cells)” value ([4]; CD3+/CD45+ lymphocytes, treated one day, control 24.4) was 17.1 % total cells, the “number of GITR^+/CD3^+/CD45^+ lymphocytes” value [4, 5] was “increase” and the “number of ILDR2^+/CD3^+/CD45^+ lymphocytes” value [4, 5] was “decrease”.
